According to patent publication US20230045421A1 (priority 2018, published 2023):
pEC50: −log10 of the molar value.

Each compound was assayed on HBV rcDNA (assay: HepDE19 assay with bDNA quantitation of HBV rcDNA). Settings: HepDE19 assay, inhibition of formation of rcDNA; read-out: DE-19bDNA EC50.
Format: cell-based, hepatitis B virus
Procedure: HepDE19 Assay with bDNA Quantitation of HBV rcDNA:
HepDE19 cell culture system is a HepG2 (human hepatocarcinoma) derived cell line that supports HBV DNA replication and cccDNA formation in a tetracycline (Tet)-regulated manner and produces HBV rcDNA and a detectable reporter molecule dependent on the production and maintenance of cccDNA (Guo, et al., 2007, J. Virol. 81:12472-12484).
HepDE19 (50,000 cells/well) were plated in 96-well collagen-coated tissue-culture treated microtiter plates in DMEM/F12 medium supplemented with 10% fetal bovine serum, 1% penicillin-streptomycin and 1 μg/mL tetracycline and incubated in a humidified incubator at 37° C. and 5% CO2 overnight. Next day, the cells were switched to fresh medium without tetracycline and incubated for 4 hours at 37° C. and 5% CO2. The cells were treated with fresh Tet-free medium with compounds at concentrations starting at 25 μM and a serial, […], 8-point, titration series in duplicate. The final DMSO concentration in the assay was 0.5%. The plates were incubated for 7 days in a humidified incubator at 37° C. and 5% CO2. Following a 7 day-incubation, the level of rcDNA present in the inhibitor-treated wells was measured using a Quantigene 2.0 bDNA assay kit (Affymetrix, Santa Clara, Calif.) with HBV specific custom probe set and manufacturers instructions. Concurrently, the effect of compounds on cell viability was assessed using replicate plates, plated at a density of 5,000 cells/well and incubated for 4 days, to determine the ATP content as a measure of cell viability using the cell-titer glo reagent (CTG; Promega Corporation, Madison, Wis.) as per manufacturer's instructions. The plates were read using a Victor luminescence plate reader (PerkinElmer Model 1420 Multilabel counter) and the relative luminescence units (RLU) data generated from each well was calculated as % inhibition of the untreated control wells and analyzed using XL-Fit module in Microsoft Excel to determine EC50 and EC90 (bDNA) and CC50 (CTG) values using a 4-parameter curve fitting algorithm.

Going from CC(c1cnc(NCCN)c2ccccc12)N(C)C(=O)Nc1ccc(F)c(Cl)c1 (single isomer, unassigned) [Compound 249, 1-(1-(1-((2-Aminoethyl)amino)isoquinolin-4-yl)ethyl)-3-(3-chloro-4-fluorophenyl)-1-methylurea] to CC(c1cn(C)c(=O)c2ccccc12)N(C)C(=O)Nc1ccc(F)c(Cl)c1 (single isomer, unassigned) [Compound 181, 3-(3-Chloro-4-fluorophenyl)-1-methyl-1-(1-(2-methyl-1-oxo-1,2-dihydroisoquinolin-4-yl)ethyl)urea], the pEC50 rises from 4.85 to 5.74 (0.89 log units).

First: CCN(C(=O)Nc1ccc(F)c(Cl)c1)C(c1ccccc1)c1cnc(OC)c2ccccc12 (single isomer, unassigned) [Compound 60, 3-(3-Chloro-4-fluorophenyl)-1-ethyl-1-((1-methoxyisoquinolin-4-yl)(phenyl)methyl)urea]
Second: CC(C)CN(C(=O)Nc1ccc(F)c(Cl)c1)C(C)c1c[nH]c(=O)c2ccccc12 (single isomer, unassigned) [Compound 144, 3-(3-chloro-4-fluorophenyl)-1-isobutyl-1-(1-(1-oxo-1,2-dihydroisoquinolin-4-yl)ethyl)urea]
The pEC50 of the first is 2.94 log units lower: 5.06 for the first, 8.00 for the second.

In the case of CC(c1cn(C)c(=O)c2ccccc12)N(C)C(=O)Nc1ccc(F)c(Cl)c1 (single isomer, unassigned) [Compound 182, 3-(3-Chloro-4-fluorophenyl)-1-methyl-1-(1-(2-methyl-1-oxo-1,2-dihydroisoquinolin-4-yl)ethyl)urea], the pEC50 was 7.52.

Same assay, conditions: HepDE19 assay, inhibition of formation of relaxed circular DNA (rcDNA), bDNA quantitation; read-out: DE-19bDNA EC50

CC(c1cn(C)c(=O)c2c(F)c(F)ccc12)N(C)C(=O)Nc1ccc(F)c(Cl)c1 (single isomer, unassigned) [Compound 333, 3-(3-Chloro-4-fluorophenyl)-1-(1-(7,8-difluoro-2-methyl-1-oxo-1,2-dihydroisoquinolin-4-yl)ethyl)-1-methylurea] and CC(c1c[nH]c(=O)c2c(F)c(F)ccc12)N(C)C(=O)Nc1ccc(F)c(C#N)c1 (single isomer, unassigned) [Compound 471, 3-(3-Cyano-4-fluorophenyl)-1-(1-(7,8-difluoro-1-oxo-1,2-dihydroisoquinolin-4-yl)ethyl)-1-methylurea] are within 0.2 log units of each other in pEC50: 7.89 for the first, 7.70 for the second.

Going from CC(c1c[nH]c(=O)c2cc(F)c(F)cc12)N(C)C(=O)Nc1ccnc(Cl)c1 (single isomer, unassigned) [Compound 418, 3-(2-Chloropyridin-4-yl)-1-(1-(6,7-difluoro-1-oxo-1,2-dihydroisoquinolin-4-yl)ethyl)-1-methylurea] to CC(C)CN(C(=O)Nc1ccc(F)cc1)C(C)c1c[nH]c(=O)c2cc(F)c(F)cc12 (single isomer, unassigned) [Compound 287, 1-(1-(6,7-Difluoro-1-oxo-1,2-dihydroisoquinolin-4-yl)ethyl)-3-(4-fluorophenyl)-1-isobutylurea], the pEC50 rises from 5.00 to 5.82 (0.82 log units). The second is the more potent here.

CC(c1cnc(C(=O)N(C)C)c2ccccc12)N(C)C(=O)Nc1ccc(F)c(Cl)c1 (single isomer, unassigned) [Compound 319, 4-(1-(3-(3-Chloro-4-fluorophenyl)-1-methylureido)ethyl)-N,N-dimethylisoquinoline-1-carboxamide] and CC(c1c[nH]c(=O)c2ccccc12)N(Cc1cscn1)C(=O)Nc1ccc(F)c(Cl)c1 (single isomer, unassigned) [Compound 313, 3-(3-Chloro-4-fluorophenyl)-1-(1-(1-oxo-1,2-dihydroisoquinolin-4-yl)ethyl)-1-(thiazol-4-ylmethyl)urea] are within 0.2 log units of each other in pEC50: 6.42 for the first, 6.40 for the second.

Compound CC(c1c[nH]c(=O)c2c(F)c(F)ccc12)N(C)C(=O)Nc1cc(Cl)c(F)c(Cl)c1 (single isomer, unassigned) [Compound 451, 3-(3,5-Dichloro-4-fluorophenyl)-1-(1-(7,8-difluoro-1-oxo-1,2-dihydroisoquinolin-4-yl)ethyl)-1-methylurea] has a pEC50 of 5.49.

Same assay, conditions: Hepatitis B virus, HepDE19, HepDE19 assay, inhibition of formation of rcDNA; read-out: DE-19bDNA EC50

Going from CC(c1c[nH]c(=O)c2ccccc12)N(CCCN)C(=O)Nc1ccc(F)c(Cl)c1 (single isomer, unassigned) [Compound 164, 1-(3-Aminopropyl)-3-(3-chloro-4-fluorophenyl)-1-(1-(1-oxo-1,2-dihydroisoquinolin-4-yl)ethyl)urea] to CC(C)CN(C(=O)Nc1ccc(F)c(Cl)c1)C(C)c1c[nH]c(=O)c2ccccc12 (racemic) [Compound 135, 3-(3-chloro-4-fluorophenyl)-1-isobutyl-1-(1-(1-oxo-1,2-dihydroisoquinolin-4-yl)ethyl)urea], the pEC50 rises from 4.92 to 8.00 (3.08 log units). The second is the more potent here.

Compared with CCN(Cc1c[nH]c(=O)c2ccccc12)C(=O)Nc1ccc(F)c(Cl)c1 [Compound 9, 3-(3-Chloro-4-fluorophenyl)-1-ethyl-1-((1-oxo-1,2-dihydroisoquinolin-4-yl)methyl)urea], CC(c1c[nH]c(=O)c2ccccc12)N(CC(=O)N(C)C)C(=O)Nc1ccc(F)c(Cl)c1 (racemic) [Compound 147, 2-(3-(3-Chloro-4-fluorophenyl)-1-(1-(1-oxo-1,2-dihydroisoquinolin-4-yl)ethyl)ureido)-N,N-dimethylacetamide] is 0.72 log units lower in pEC50: 6.80 for the first, 6.08 for the second.

Compared with CC(c1c[nH]c(=O)c2ccccc12)N(C[C@H]1CC[C@H](O)CC1)C(=O)Nc1ccc(F)c(Cl)c1 (mixture of isomers) [Compound 221, trans-3-(3-Chloro-4-fluorophenyl)-1-((4-hydroxycyclohexyl)methyl)-1-(1-(1-oxo-1,2-dihydroisoquinolin-4-yl)ethyl)urea], C[C@H](c1c[nH]c(=O)c2ccccc12)N(C)C(=O)Nc1ccc(F)cc1 [Compound 90, (R)-3-(4-Fluorophenyl)-1-methyl-1-(1-(1-oxo-1,2-dihydroisoquinolin-4-yl)ethyl)urea] is 0.34 log units lower in pEC50: 6.68 for the first, 6.34 for the second.

Compared with COc1ncc(CN(Cc2ccccc2)C(=O)Nc2ccc(F)c(Cl)c2)c2ccccc12 [Compound 48, 1-Benzyl-3-(3-chloro-4-fluorophenyl)-1-((1-methoxyisoquinolin-4-yl)methyl)urea], COc1ncc(CNC(=O)Nc2ccc(F)c(C)c2)c2ccccc12 [Compound 7, 1-(4-Fluoro-3-methylphenyl)-3-((1-methoxyisoquinolin-4-yl)methyl)urea] is 0.76 log units lower in pEC50: 5.68 for the first, 4.92 for the second. The first is the more potent here.

Same assay, conditions: Hepatitis B virus, HepDE19, HepDE19 assay, inhibition of formation of relaxed circular DNA (rcDNA), bDNA quantitation; read-out: DE-19bDNA EC50

Compared with CC(c1c[nH]c(=O)c2ccccc12)N(C)C(=O)NC1CCCC1 (single isomer, unassigned) [Compound 299, 3-Cyclopentyl-1-methyl-1-(1-(1-oxo-1,2-dihydroisoquinolin-4-yl)ethyl)urea], CC(c1cnc(C(=O)O)c2ccccc12)N(C)C(=O)Nc1ccc(F)c(Cl)c1 (single isomer, unassigned) [Compound 325, 4-(1-(3-(3-Chloro-4-fluorophenyl)-1-methylureido)ethyl)isoquinoline-1-carboxylic acid] is 0.31 log units higher in pEC50: 5.07 for the first, 5.38 for the second. The second is the more potent here.

Same assay, conditions: read-out: DE-19bDNA EC50; HepDE19 assay, inhibition of formation of rcDNA

Compared with CCN(C(=O)Nc1ccc(F)c(Cl)c1)C(c1c[nH]c(=O)c2ccccc12)C1CC1 (single isomer, unassigned) [Compound 46, 3-(3-Chloro-4-fluorophenyl)-1-(cyclopropyl(1-oxo-1,2-dihydroisoquinolin-4-yl)methyl)-1-ethylurea], CC(c1c[nH]c(=O)c2cc(F)c(F)cc12)N(C)C(=O)Nc1ccc(F)c(Cl)c1 (single isomer, unassigned) [Compound 279, 3-(3-Chloro-4-fluorophenyl)-1-(1-(6,7-difluoro-1-oxo-1,2-dihydroisoquinolin-4-yl)ethyl)-1-methylurea] is 3.51 log units higher in pEC50: 4.64 for the first, 8.15 for the second.

Same assay, conditions: read-out: DE-19bDNA EC50; HepDE19 assay, inhibition of formation of relaxed circular DNA (rcDNA), bDNA quantitation

Compared with CC(c1c[nH]c(=O)c2c(F)c(F)ccc12)N(C)C(=O)Nc1cccc(F)c1 (single isomer, unassigned) [Compound 456, 1-(1-(7,8-Difluoro-1-oxo-1,2-dihydroisoquinolin-4-yl)ethyl)-3-(3-fluorophenyl)-1-methylurea], CC(c1c[nH]c(=O)c2cc(F)c(F)cc12)N(C)C(=O)Nc1cccc(Cl)c1 (single isomer, unassigned) [Compound 412, 1-(1-(6,7-Difluoro-1-oxo-1,2-dihydroisoquinolin-4-yl)ethyl)-3-(3-chlorophenyl)-1-methylurea] is 1.57 log units lower in pEC50: 7.29 for the first, 5.72 for the second.

Compound CCN(C(=O)Nc1ccccc1)C(C)c1c[nH]c(=O)c2cc(F)c(F)cc12 (single isomer, unassigned) [Compound 404, 1-(1-(6,7-Difluoro-1-oxo-1,2-dihydroisoquinolin-4-yl)ethyl)-1-ethyl-3-phenylurea] has a pEC50 of 4.74.
